{"source": "patent US20230135524A1", "about": "“ARYL HYDANTOIN HETEROCYCLES AND METHODS OF USE” (The United States of America,as represented by the …, priority 2020, published 2023)", "key": {"LNCaP": {"system": "LNCaP", "assay": "IncuCyte % confluence cell growth inhibition, LNCaP", "format": "cell-based", "details": "Homo sapiens, read-out: IC50 values (μM), LNCaP", "description": "(§1) Images were then analyzed to discern the % confluence of cells in each well. IC50 values were calculated from dose response curves of the % cell growth inhibition relative to DMSO control at the same time point per each cell line."}, "LAPC4": {"system": "LAPC4", "assay": "IncuCyte % confluence cell growth inhibition, LAPC4", "format": "cell-based", "details": "Homo sapiens, LAPC4, read-out: IC50 values (μM), LAPC4", "description": "as §1"}, "Aldosterone Receptor": {"target": "T1, Aldosterone Receptor (UniProt P22199)", "T1 sequence (P22199 1-981)": "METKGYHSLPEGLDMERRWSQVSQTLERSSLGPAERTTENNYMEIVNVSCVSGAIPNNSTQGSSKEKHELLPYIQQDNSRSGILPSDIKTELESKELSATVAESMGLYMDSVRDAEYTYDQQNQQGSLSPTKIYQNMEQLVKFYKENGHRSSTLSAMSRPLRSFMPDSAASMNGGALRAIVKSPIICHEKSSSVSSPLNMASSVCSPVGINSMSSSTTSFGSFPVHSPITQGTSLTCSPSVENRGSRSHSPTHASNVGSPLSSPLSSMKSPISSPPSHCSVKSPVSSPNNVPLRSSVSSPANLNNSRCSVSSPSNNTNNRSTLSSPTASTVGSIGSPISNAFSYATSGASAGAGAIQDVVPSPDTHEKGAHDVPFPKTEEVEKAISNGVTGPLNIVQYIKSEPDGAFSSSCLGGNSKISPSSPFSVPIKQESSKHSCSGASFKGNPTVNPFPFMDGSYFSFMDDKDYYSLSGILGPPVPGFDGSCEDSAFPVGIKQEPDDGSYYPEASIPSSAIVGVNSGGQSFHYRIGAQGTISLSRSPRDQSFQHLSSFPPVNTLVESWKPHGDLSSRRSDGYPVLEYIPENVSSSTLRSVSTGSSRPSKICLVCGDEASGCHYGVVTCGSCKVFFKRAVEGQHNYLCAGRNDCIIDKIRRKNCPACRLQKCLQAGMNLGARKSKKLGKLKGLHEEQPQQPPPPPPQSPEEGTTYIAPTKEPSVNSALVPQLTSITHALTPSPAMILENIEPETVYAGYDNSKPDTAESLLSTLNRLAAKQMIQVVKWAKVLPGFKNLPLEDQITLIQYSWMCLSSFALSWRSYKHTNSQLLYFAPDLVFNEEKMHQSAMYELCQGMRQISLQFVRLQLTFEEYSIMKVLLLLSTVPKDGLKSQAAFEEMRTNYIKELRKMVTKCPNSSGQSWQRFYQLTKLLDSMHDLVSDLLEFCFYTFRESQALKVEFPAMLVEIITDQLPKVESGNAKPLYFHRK", "assay": "Radioligand competition binding, [3H] aldosterone", "details": "competition with [3H] aldosterone, 20 hours", "description": "(§2) Binding assays were performed via competition with radioactive ligands across a range of dose of compounds 15a and 19d. For aldosterone binding, the aldosterone receptor was incubated for 20 hours with […] aldosterone. Similarly, the androgen receptor was co-incubated with 0.5 nM of [^3H] methyltrienolone, the estrogen receptor alpha was co-incubated with 0.5 nM [^3H] estradiol, the glucocorticoid receptor with 0.5 nM [^3H] dexamethasone, and the progesterone receptor with 0.5 nM [^3H] progesterone as parent ligands."}, "Estrogen Receptor alpha": {"target": "Estrogen Receptor alpha (Homo sapiens, UniProt P03372)", "sequence (P03372 whole entry)": "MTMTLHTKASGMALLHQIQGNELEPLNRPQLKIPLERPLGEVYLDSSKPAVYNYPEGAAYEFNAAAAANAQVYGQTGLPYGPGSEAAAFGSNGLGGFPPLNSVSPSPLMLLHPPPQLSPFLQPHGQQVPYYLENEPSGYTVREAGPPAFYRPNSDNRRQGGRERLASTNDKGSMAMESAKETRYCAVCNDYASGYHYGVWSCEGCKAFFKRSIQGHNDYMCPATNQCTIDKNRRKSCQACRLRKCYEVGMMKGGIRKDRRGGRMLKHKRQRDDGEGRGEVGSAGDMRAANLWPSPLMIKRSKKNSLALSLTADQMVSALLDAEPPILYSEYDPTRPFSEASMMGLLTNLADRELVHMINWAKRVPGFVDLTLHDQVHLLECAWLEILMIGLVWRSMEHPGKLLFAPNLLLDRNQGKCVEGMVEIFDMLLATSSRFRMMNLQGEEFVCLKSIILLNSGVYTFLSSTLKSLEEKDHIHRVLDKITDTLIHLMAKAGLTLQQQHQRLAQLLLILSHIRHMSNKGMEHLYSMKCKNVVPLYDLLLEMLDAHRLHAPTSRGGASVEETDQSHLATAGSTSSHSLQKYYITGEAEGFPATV", "assay": "Radioligand competition binding, [3H] estradiol", "details": "competition with 0.5 nM [3H] estradiol", "description": "as §2"}, "Progesterone Receptor B": {"target": "T2, Progesterone Receptor B (Homo sapiens, UniProt P06401)", "T2 sequence (P06401 1-933)": "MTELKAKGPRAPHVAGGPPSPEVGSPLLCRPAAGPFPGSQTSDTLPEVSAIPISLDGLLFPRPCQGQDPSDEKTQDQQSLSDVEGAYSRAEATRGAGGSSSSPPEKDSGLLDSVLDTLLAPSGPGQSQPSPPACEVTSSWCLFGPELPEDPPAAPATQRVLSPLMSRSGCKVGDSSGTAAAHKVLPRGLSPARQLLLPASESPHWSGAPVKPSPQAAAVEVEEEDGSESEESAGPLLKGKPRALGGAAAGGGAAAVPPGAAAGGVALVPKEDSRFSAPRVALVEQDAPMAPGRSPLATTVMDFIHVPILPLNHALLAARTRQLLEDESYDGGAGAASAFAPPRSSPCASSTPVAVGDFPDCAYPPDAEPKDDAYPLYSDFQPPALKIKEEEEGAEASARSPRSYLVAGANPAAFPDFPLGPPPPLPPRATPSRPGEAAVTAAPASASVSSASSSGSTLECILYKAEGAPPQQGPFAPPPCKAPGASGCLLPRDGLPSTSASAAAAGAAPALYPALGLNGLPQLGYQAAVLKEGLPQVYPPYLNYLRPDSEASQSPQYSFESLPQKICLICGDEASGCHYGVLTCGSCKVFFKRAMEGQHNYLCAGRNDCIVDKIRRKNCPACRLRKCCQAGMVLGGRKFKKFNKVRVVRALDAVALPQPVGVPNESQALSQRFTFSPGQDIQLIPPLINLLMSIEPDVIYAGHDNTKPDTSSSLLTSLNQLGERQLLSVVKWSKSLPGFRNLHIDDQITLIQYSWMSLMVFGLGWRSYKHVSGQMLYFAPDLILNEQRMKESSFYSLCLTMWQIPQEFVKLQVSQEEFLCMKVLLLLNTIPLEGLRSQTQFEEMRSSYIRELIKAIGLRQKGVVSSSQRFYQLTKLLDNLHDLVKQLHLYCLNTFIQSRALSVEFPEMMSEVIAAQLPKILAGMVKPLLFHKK", "assay": "Radioligand competition binding, [3H] progesterone", "details": "competition with 0.5 nM [3H] progesterone", "description": "as §2"}}}
{"compound": "CC1(C)C(=O)N(c2ccc(C#N)c(C(F)(F)F)c2)C(=S)N1Cc1ccc(-c2c[nH]nn2)cc1", "note": "[Compound 15a, 4-(3-(4-(1H-1,2,3-triazol-4-yl)benzyl)-4,4-dimethyl-5-oxo-2-thioxoimidazolidin-1-yl)-2-(trifluoromethyl)benzonitrile]", "values": [{"measurement": "IC50", "setting": "LNCaP", "result": 30.5, "unit": "µM"}, {"measurement": "IC50", "setting": "LAPC4", "result": 13.3, "unit": "µM"}, {"measurement": "IC50", "setting": "Aldosterone Receptor", "result": "> 10000", "unit": "nM"}, {"measurement": "IC50", "setting": "Estrogen Receptor alpha", "result": "> 10000", "unit": "nM"}, {"measurement": "IC50", "setting": "Progesterone Receptor B", "result": 103, "unit": "nM"}]}
{"compound": "CC1(C)C(=O)N(c2ccc(C#N)c(C(F)(F)F)c2)C(=S)N1Cc1ccc(-c2c[nH]nn2)cc1F", "note": "[Compound 19d, 4-(3-(2-Fluoro-4-(1H-1,2,3-triazol-4-yl)benzyl)-4,4-dimethyl-5-oxo-2-thioxoimidazolidin-1-yl)-2-(trifluoromethyl)benzonitrile]", "values": [{"measurement": "IC50", "setting": "LNCaP", "result": 35.7, "unit": "µM"}, {"measurement": "IC50", "setting": "LAPC4", "result": 16.3, "unit": "µM"}, {"measurement": "IC50", "setting": "Aldosterone Receptor", "result": "> 10000", "unit": "nM"}, {"measurement": "IC50", "setting": "Estrogen Receptor alpha", "result": "> 10000", "unit": "nM"}, {"measurement": "IC50", "setting": "Progesterone Receptor B", "result": 76.3, "unit": "nM"}]}
